Results taken from ChEMBL document CHEMBL5365498, “Regulation of Eukaryotic Translation Initiation Factor 4E as a Potential Anticancer Strategy” (J Med Chem, 2023).

Key:
A549 = experiment: Anticancer activity against human A549 cells assessed as cell growth inhibition measured after 72 hrs by CCK-8 assay; format: functional, cell-based; details: A549, 72 h
MCF7 = experiment: Anticancer activity against human MCF7 cells assessed as cell growth inhibition measured after 72 hrs by CCK-8 assay; format: functional, cell-based; details: MCF7, 72 h
[1] = target: Serine/threonine-protein kinase mTOR (Homo sapiens, UniProt P42345); experiment: Inhibition of human mTOR (1360 to 2549 residues) measured after 2 hrs in presence of ATP by LANCE Ultra kinase assay
[2] = Anticancer activity against Breast carcinoma cell (unknown origin) assessed as cell growth inhibition; format: functional, cell-based
Lung cancer cell line = experiment: Anticancer activity against Lung cancer cell line (unknown origin) assessed as cell growth inhibition; format: functional, cell-based
Melanoma tumor cell line = experiment: Anticancer activity against Melanoma tumor cell line (unknown origin) assessed as cell growth inhibition; format: functional, cell-based
[3] = Anticancer activity against Cervical carcinoma cell line (unknown origin) assessed as cell growth inhibition; format: functional, cell-based

| IC50 (A549) | IC50 (MCF7) | IC50 [1] | IC50 (Lung cancer cell line) | IC50 (Melanoma tumor cell line) | Structure (SMILES) | IC50 [2] | IC50 [3] |
| --- | --- | --- | --- | --- | --- | --- | --- |
| 230 nM | 600 nM | 23.2 nM |  |  | CNC(=O)Nc1ccc(-c2nc(N3CCOCC3)nc3c2C=NC3C2CCOCC2)cc1 (configuration not stated) |  |  |
|  |  |  | 20 nM | 20 nM | Oc1cccc(-c2nc(N3CCOCC3)c3oc4ncccc4c3n2)c1 [PI-103] | 20 nM | 20 nM |
